Laboratory results published in BindingDB's records for patent US11912693 (Trevena, 2024).

Tests used:
[1] = target: T1, Sphingosine 1-phosphate receptor 1 (Homo sapiens, UniProt P21453); test: Detecting Inhibition of cAMP Production
Procedure: Agonist-promoted G-protein responses were determined by measuring changes in intracellular cAMP using the HTRF cAMP HiRange kit (CisBio, Cat #: 62AM6PEJ) based on time-resolved fluorescence resonance energy transfer (TR-FRET) technology. […] Following a 30-minute incubation at 37 C. and 5% CO2 in a humidified CO2 and temperature-controlled incubator, the components of the cAMP HiRange kit were added as per the manufacturer's instructions. After an hour incubation at room temperature, plates were analyzed by a BMG PheraStar microplate reader.

[2] = target: T1, Sphingosine 1-phosphate receptor 1; test: Beta-Arrestin2 Recruitment Assay
Procedure: Agonist-promoted β-arrestin2 recruitment to the sphingosine-1-phosphate 1 receptor was determined using the β-arrestin PathHunter ) Detection kit (DiscoverX Corporation, Cat #: 93-0001). […] In cells that stably express these fusion proteins, stimulation with a cognate agonist results in the interaction of 0-arrestin2 and the Prolink -tagged GPCR. This allows the complementation of the two β-galactosidase fragments and results in the formation of a functional enzyme with β-galactosidase activity. […] Following a 60 minute incubation at 37 C. and 5% CO2 in a humidified CO2 and temperature-controlled incubator, the components of the β-arrestin PathHunter Detection kit were added as per the manufacturer's instructions. After an hour incubation at room temperature, plates were analyzed by a BMG PheraStar microplate reader.

T1 sequence (P21453 whole entry): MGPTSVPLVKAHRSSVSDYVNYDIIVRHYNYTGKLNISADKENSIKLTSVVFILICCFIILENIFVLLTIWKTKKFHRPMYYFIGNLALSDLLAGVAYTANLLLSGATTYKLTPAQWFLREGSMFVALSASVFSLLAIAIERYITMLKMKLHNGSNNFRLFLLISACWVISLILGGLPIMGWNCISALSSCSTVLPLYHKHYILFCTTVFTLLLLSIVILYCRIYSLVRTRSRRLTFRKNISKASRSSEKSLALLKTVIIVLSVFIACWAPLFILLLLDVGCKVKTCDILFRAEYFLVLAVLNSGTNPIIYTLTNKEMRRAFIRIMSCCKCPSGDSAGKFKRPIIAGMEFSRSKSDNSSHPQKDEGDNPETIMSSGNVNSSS

Row | Compound | EC50 [1] [µM] | EC50 [2] [µM]
1 | CC(C)N1NNc2cc(-c3nc(-c4cn[nH]c4)no3)ccc21 [US11912693, Compound 646] | > 0.316 | > 10
2 | CC(C)N1NNc2cc(-c3nc(-c4sccc4Cl)co3)ccc21 [US11912693, Compound 463] | < 0.316 | < 10
3 | CC(C)N1NNc2cc(-c3nc(-c4cccnc4Cl)no3)ccc21 [US11912693, Compound 499] | < 0.316 | < 10
4 | Cc1cc(-c2noc(-c3ccc4c(c3)NNN4C(C)C)n2)c(C)o1 [US11912693, Compound 490] | < 0.316 | < 10
5 | Cc1occc1-c1noc(-c2ccc3c(c2)NNN3C(C)C)n1 [US11912693, Compound 491] | < 0.316 | < 10
6 | Cc1cc(-c2noc(-c3ccc4c(c3)NNN4CC(C)(C)O)n2)c(C)o1 [US11912693, Compound 493] | > 0.316 | > 10
7 | Cc1cc(-c2noc(-c3ccc4c(c3)nnn4C3CCCC3)n2)ccn1 [US11912693, Compound 77] | > 0.316 | > 10
8 | CC(C)n1nnc2cc(-c3nc(-c4ccccc4Cl)co3)ccc21 [US11912693, Compound 163] | < 0.316 | < 10
9 | Cc1ccccc1-c1nc(-c2ccc3c(c2)NNN3CC(C)(C)O)no1 [US11912693, Compound 593] | < 0.316 | < 10
